Measured values taken from patent US8178490B2, “Polybasic bacterial efflux pump inhibitors and therapeutic uses thereof” (priority 2007, dated 2012).

Columns and labels:
[1] = system: P. aeruginosa PAM1723, overexpressing the MexABOprM efflux pump; assay type: cell-based, Pseudomonas aeruginosa; conditions: lowest inhibitor concentration giving antibacterial activity with levofloxacin at 1/8 of its MIC
Source text: (§1) EPI activity is defined as concentration of an EPI compound that is necessary to achieve ½ of a maximum theoretical effect in increase of antibiotic susceptibility due to efflux inhibition. The maximum theoretical effect, Emax, is defined as a ratio of antibacterial activity of antibiotics (minimal inhibitory concentration, MIC) of pump overexpressing vs. pump lacking strains. […] The strain PAM1723, overexpressing the MexABOprM efflux pump was used as a test strain. […] Azithromycin was used as test antibiotic to assess the EPI activity in Klebsiella pneumoniae. The strain KPM1004 overexpressing the AcrABTolC efflux pump was used as a test strain. […] Thus, EPI activity, that is assessed in K. pneumoniae, is a concentration of an EPI compound that is necessary to increase susceptibility to azithromicin of KPM1004 sixteen fold.
(§2) The EPI activity of the test compounds was assessed by the checkerboard assay (Antimicrobial Combinations, Antibiotics in Laboratory Medicine, Ed. Victor Lorian, M.D., Fourth edition, 1996, pp 333338, which is incorporated herein by reference in its entirety) using a broth microdilution method performed as recommended by the NCCLS (National Committee for Clinical Laboratory Standards (NCCLS), 1997, Methods for Dilution of Antimicrobial Susceptibility Tests for Bacteria That Grow Aerobically, Fourth Edition; Approved Standard. NCCLS Document M7A4, Vol 17 No. 2, which is incorporated herein by reference in its entirety). […] All EPI compounds were readily soluble in water and stock solutions were prepared at a final concentration of 10 mg/ml. Stock solutions were further diluted, according to the needs of the particular assay, in Mueller Hinton Broth (MHB). Stock solution was stored at −80° C. The checkerboard assay was performed in microtiter plates. […] EPIs were diluted in the axis, each row containing a single concentration of an EPI. […] The assay was performed in MHB with a final bacterial (PAM1723 or […]) inoculum of 5 times 10^5 CFU/ml (from an early log phase culture). Microtiter plates were incubated during 20 h at 35° C. and were read using a microtiter plate reader (Molecular Devices) at 650 nm as well as visual observation using a microtiter plate reading mirror.
(§3) Azithromycin potentiation activities of selected inhibitors for K. pneumoniae are reported as MPC16 values.

[2] = system: Klebsiella pneumoniae KPM1004 overexpressing the AcrABTolC efflux pump; experiment: microbe, parasite or virus in culture; assay type: cell-based; conditions: lowest inhibitor concentration giving antibacterial activity with azithromycin at 1/16 of its MIC; K. pneumoniae KPM1004
Source text: as §1, §2, §3

[3] = Rat serum pharmacokinetics after 1.5-hour IV infusion; assay type: in vivo; conditions: 1.5-hour IV infusion in 0.9% saline, dose (mg/kg) differs per compound, two-compartment model; for clearance: read-out: Clearance (free drug clearance) (converted)
Description: In the experiment depicted in Table 7, above, rat serum pharmacokinetics of selected inhibitor compounds was evaluated after 1.5-hour IV infusion of 1.5 ml solution of corresponding efflux pump inhibitor in 0.9% saline. Depending on the concentration used the total infused dose was 2, 5, 10 or 20 mg/kg. A two-compartment model was used to fit the data and calculate PK parameters.

| Compound | MPC8 (μg/mL) (Levofloxacin, PAM1723) [1] [µg/mL] | MPC16 (μg/mL) Azithromycin, KPM1004) [2] [µg/mL] | Cmax [3] [ng/mL] | clearance [3] [mL/min/kg] |
| --- | --- | --- | --- | --- |
| 3-[(1S)-3-[bis(2-azaniumylethyl)carbamoyl]-1-{[(1R)-1-carbamoyl-2-[4-(trifluoromethyl)phenyl]ethyl]carbamoyl}propan-1-aminium]quinolin-1-ium tetrachloride [Compound 1] | 0.3 | 0.6 | – | – |
| 3-[(1S)-3-[bis(2-azaniumylethyl)carbamoyl]-1-{[(1S)-1-carbamoyl-2-[4-(trifluoromethyl)phenyl]ethyl](methyl)carbamoyl}propan-1-aminium]quinolin-1-ium tetrachloride [Compound 5] | 0.6 | – | – | – |
| 3-[(1S)-3-[bis(2-azaniumylethyl)carbamoyl]-1-{[(1S)-1-carbamoyl-2-[4-(trifluoromethyl)phenyl]ethyl]carbamoyl}propan-1-aminium]quinolin-1-ium tetrachloride [Compound 28] | 1.25 | 1.25 | – | – |
| NCCN(CCN)C(=O)CC[C@H](N)C(=O)N/C(=C/c1ccc(C(F)(F)F)cc1)C(=O)Nc1cnc2ccccc2c1 [Compound 4, 3-[(1S)-3-[bis(2-azaniumylethyl)carbamoyl]-1-{[(1E)-1-carbamoyl-2-[4-(trifluoromethyl)phenyl]eth-1-en-1-yl]carbamoyl}propan-1-aminium]quinolin-1-ium tetrachloride] | 1.25 | 1.25 | – | – |
| Cl.Cl.Cl.Cl.NCCN(CCN)C(=S)C(C[C@H](N)C(=O)N[C@H](Cc1ccc(C(F)(F)F)cc1)C(N)=O)c1cnc2ccccc2c1 (stereo partly drawn) [Compound 12, 3-[(1S)-3-[bis(2-azaniumylethyl)carbamothioyl]-1-{[(1R)-1-carbamoyl-2-[4-(trifluoromethyl)phenyl]ethyl]carbamoyl}propan-1-aminium]quinolin-1-ium tetrachloride] | 1.25 | 1.25 | – | – |
| Cl.Cl.Cl.Cl.NCCN(CCN)C(=O)C[C@H](Nc1ccc2ncccc2c1)C(=O)N[C@@H](CC1CCCCC1)C(N)=O [Compound 13, 6-[(1S)-2-[bis(2-azaniumylethyl)carbamoyl]-1-{[(1S)-1-carbamoyl-2-cyclohexylethyl]carbamoyl}ethan-1-aminium]quinolin-1-ium tetrachloride] | 1.25 | – | – | – |
| NCCN(CCN)C(=O)C[C@H](N)C(=O)N[C@@H](CCc1ccccc1)C(=O)Nc1ccc2cnccc2c1 [Compound 49] | – | – | 2390 | 70.2 |
| Cc1cc(CNC(=O)[C@H](CCc2ccccc2)NC(=O)[C@@H](N)CC(=O)N(CCN)CCN)c(C(F)(F)F)o1 [Compound 67] | – | – | 2980 | 51.7 |
| Cc1ccc(NC(=O)[C@H](CCc2ccccc2)NC(=O)[C@@H](N)CC(=O)N(CCN)CCN)cc1 [Compound 77] | – | – | 2960 | 63.2 |
| CCOc1ccc(NC(=O)[C@H](CCc2ccccc2)NC(=O)[C@@H](N)CC(=O)N(CCN)CCN)cc1 [Compound 85] | – | – | 13900 | 50 |
| NCCN(CCN)C(=O)C[C@H](N)C(=O)N[C@@H](CCc1ccccc1)C(=O)Nc1cc(Cl)c(Cl)cc1Cl [Compound 87] | – | – | 11000 | 64.3 |
| Cc1cc(C)c(NC(=O)[C@H](CCc2ccccc2)NC(=O)[C@@H](N)CC(=O)N(CCN)CCN)c(C)c1 [Compound 88] | – | – | 2500 | 28 |
| NCCN(CCN)C(=O)C[C@H](N)C(=O)N[C@@H](CCc1ccccc1)C(=O)Nc1cccc(C(F)(F)F)c1 [Compound 90] | – | – | 1220 | 103 |
| CC(C)c1ccc(NC(=O)[C@H](CCc2ccccc2)NC(=O)[C@@H](N)CC(=O)N(CCN)CCN)cc1 [Compound 91] | – | – | 2670 | 98.2 |
| NCCN(CCN)C(=O)C[C@H](N)C(=O)N[C@@H](CCc1ccccc1)C(=O)NCc1ccc(OC(F)(F)F)cc1 [Compound 95] | – | – | 1750 | 30.2 |
| Cc1ccc(C)c(CNC(=O)[C@H](CCc2ccccc2)NC(=O)[C@@H](N)CC(=O)N(CCN)CCN)c1 [Compound 96] | – | – | 3850 | 51.8 |
| NCCN(CCN)C(=O)C[C@H](N)C(=O)N[C@@H](CCc1ccccc1)C(=O)NCc1ccc(F)c(C(F)(F)F)c1 [Compound 102] | – | – | 5050 | 43 |
| NCCN(CCN)C(=O)C[C@H](N)C(=O)N[C@@H](CCc1ccccc1)C(=O)NCc1ccc(Oc2ccccn2)cc1 [Compound 110] | – | – | 1890 | 91.2 |
| NCCN(CCN)C(=O)C[C@H](N)C(=O)N[C@@H](CCc1ccccc1)C(=O)NCc1ccc(OC2CCOCC2)cc1 [Compound 133] | – | – | 1270 | 88.3 |
| Cl.Cl.Cl.Cl.NCCN(CCN)C(=O)C[C@H](N)C(=O)N[C@H](C(=O)Nc1cnc2ccccc2c1)C(O)c1ccc(C(F)(F)F)cc1 (stereo partly drawn) [Compound 169, 3-[(1S)-2-[bis(2-azaniumylethyl)carbamoyl]-1-{[(1S)-1-carbamoyl-2-hydroxy-2-[4-(trifluoromethyl)phenyl]ethyl]carbamoyl}ethan-1-aminium]quinolin-1-ium tetrachloride] | – | – | 22900 | 31.3 |
| CC(C)Oc1ccc(NC(=O)[C@H](CCc2ccccc2)NC(=O)[C@@H](N)CC(=O)N(CCN)CCN)cc1 [Compound 214] | – | – | 1540 | 92.2 |
| CC(C)Oc1ccc(NC(=O)[C@H](CCc2ccccc2)NC(=O)[C@@H](N)CC(=O)N(CCN)CCN)c(F)c1 [Compound 215] | – | – | 690 | 93.3 |
| NCCN(CCN)C(=O)C[C@H](N)C(=O)N[C@@H](CCc1ccccc1)C(=O)NCc1c(Cl)cccc1Cl [Compound 224] | – | – | 1590 | 66.2 |
| COc1cc(OC(F)(F)F)ccc1CNC(=O)[C@H](CCc1ccccc1)NC(=O)[C@@H](N)CC(=O)N(CCN)CCN [Compound 233] | – | – | 4920 | 118 |
| CC(C)Oc1ccc(CNC(=O)[C@H](CCc2ccccc2)NC(=O)[C@@H](N)CC(=O)N(CCN)CCN)cc1 [Compound 237] | – | – | 1260 | 70.8 |
| CCCc1ccccc1NC(=O)[C@H](CCc1ccccc1)NC(=O)[C@@H](N)CC(=O)N(CCN)CCN [Compound 271] | – | – | 340 | 78.5 |
| Cl.Cl.Cl.Cl.NCCN(CCN)C(=O)C[C@H](N)C(=O)NCC(=O)N[C@@H](CCc1ccccc1)C(=O)Nc1cnc2ccccc2c1 [Compound 348, 3-[(1S)-2-[bis(2-azaniumylethyl)carbamoyl]-1-[({[(1S)-1-carbamoyl-3-phenylpropyl]carbamoyl}methyl)carbamoyl]ethan-1-aminium]quinolin-1-ium tetrachloride] | – | – | 2200 | 328 |
| CCOc1c(F)cc(NC(=O)[C@H](CCc2ccccc2)NC(=O)[C@@H](N)CC(=O)N(CCN)CCN)cc1F.Cl.Cl.Cl [Compound 352, (1S)-2-[bis(2-azaniumylethyl)carbamoyl]-1-{[(1S)-1-[(4-ethoxy-3,5-difluorophenyl)carbamoyl]-3-phenylpropyl]carbamoyl}ethan-1-aminium trichloride] | – | – | 2440 | 177 |
| NCCN(CCN)C(=O)C[C@H](N)C(=O)NCC(=O)N(Cc1ccc(C(F)(F)F)cc1)c1cnc2ccccc2c1 [Compound 357, 3-[(1S)-2-[bis(2-azaniumylethyl)carbamoyl]-1-{[({[4-(trifluoromethyl)phenyl]methyl}carbamoyl)methyl]carbamoyl}ethan-1-aminium]quinolin-1-ium tetrachloride] | – | – | 660 | 145 |
| Cl.Cl.Cl.Cl.NCCN(CCN)C(=O)C[C@H](N)C(=O)N[C@H](Cc1ccc(C(F)(F)F)cc1)C(=O)Nc1cnc2ccccc2c1 [Compound 359, 3-[(1S)-2-[bis(2-azaniumylethyl)carbamoyl]-1-{[(1R)-1-carbamoyl-2-[4-(trifluoromethyl)phenyl]ethyl]carbamoyl}ethan-1-aminium]quinolin-1-ium tetrachloride] | – | – | 5030 | 48.2 |
